Data as given in US20200181284A1, “EPIGENETIC INHIBITORS FOR SENSITIZING HEMATOLOGIC OR OTHER MALIGNANCIES TO GLUCOCORTICOID THERAPY” (UNIVERSITY OF SOUTHERN CALIFORNIA, priority 2017, published 2020).

Test system: NALM6 cells
Experiment: Cell death assay (Presto Blue, 72 h) with dex plus inhibitor
Assay type: cell-based, human
Description: Cells were plated in CellStar low evaporation lid 96-well round-bottom plate at a density of 100,000 cells/ml. Directly after plating, cells were treated in triplicate with serial dilutions of dexamethasone or vehicle control (0.1% ethanol). After 72 h, cell viability of each well was analyzed in duplicate using the Presto Blue Assay Reagent (Life Technologies). Fluorescence was measured and data were analyzed with Prism6 software.
FIGS. 40A, 40B, 40C, 40D-1, 40D-2, 40D-3, and 40D-4 show Aurora kinase B inhibitors sensitizing NALM6 cells to GC-induced cell death. As shown in FIGS. 40A and 40B, NALM6 cells were treated with the indicated dex concentration in addition to 0.75 μM ZM447439 (FIG. 40A), 16 nM AZD2811 (FIG. 40B), or equivalent volume of vehicle DMSO for 72 h, and cell survival was measured by a fluorescence metabolic assay. In each condition, the value measured with dex was normalized to the fluorescence value measured with ethanol. Percentage of survival is shown as the mean±SEM of 4 independent experiments and p-values for individual dex concentrations were calculated using a paired t-test. *p≤0.05, **p≤0.01, * * *p≤0.001. F-test comparing the two curves: p≤0.001. Insets show the EC50s that were calculated as the concentration at which half the cells remained alive, compare to vehicle controls. Error bars depict the SEM of 4 independent experiments and p-values were calculated to compare AURKB inhibitor treatment to DMSO using a paired t-test ** p≤0.01, * * *p≤0.001. […] The indicated proteins were then examined by immunoblot. As shown in FIGS. 40D-1, 40D-2, 40D-3, and 40D-4, NALM6 cells pre-treated with AZD2811 (16 nM) or DMSO for 24 h, were then treated for 8 h with 100 nM dex or ethanol. mRNA levels for the indicated GR target genes were measured by RT-qPCR and normalized to β-actin mRNA levels.
FIGS. 48A, 48B, 48C, 48D, 48E, and 48F show the effect of AURKB inhibitors on EHMT2 phosphorylation and dex-induced cell death. […] In each condition, the value measured with dex was normalized to the fluorescence value measured with ethanol. Percentage of survival is shown as the mean±SEM of 4 independent experiments and p-values for individual dex concentrations were calculated using a paired t-test. *p≤0.05, **p≤0.01, * * *p≤0.001. F-test comparing the two curves: p≤0.001. EC50s were calculated as the concentration at which half the cells remained alive, compare to vehicle controls. Error bars depict the SEM of 4 independent experiments and p-value was calculated to compare ZM treatment to DMSO using a paired t-test **p≤0.01, * * *p≤0.001. […] EC50s were calculated as the concentration at which half the cells remained alive, compare to vehicle controls. Error bars depict the SEM of 4 independent experiments and p-value was calculated to compare alisertib treatment to DMSO using a paired t-test. […] (E-F) RCH-ACV cells were treated with the indicated dex concentration in addition to 0.75 μM ZM447439 (FIG. 48E), 16 nM AZD2811 (FIG. 48F), or DMSO for 72 h, and cell survival was measured by a fluorescence metabolic assay. In each condition, the value measured with dex was normalized to the fluorescence value measured with ethanol. Percentage of survival is shown as the mean±SEM of 5 individual experiments and the p-value for each dex concentration was calculated using a paired t-test. *p≤0.05, **p≤0.01, * * *p≤0.001. F-test comparing the two curves: p≤0.001.
FIGS. 55A, 55B, and 55C show JIB-04 enhances GC-induced death of B-ALL cell line NALM6.

Clc1ccc(N/N=C(\c2ccccc2)c2ccccn2)nc1 [JIB-04, 5-chloro-N-[(E)-[phenyl(pyridin-2-yl)methylidene]amino]pyridin-2-amine]
GC-induced death of NALM6 cells (72 hours with various dex concentrations plus KDM inhibitor): effectively enhanced

COc1cc2c(Nc3ccc(NC(=O)c4ccccc4)cc3)ncnc2cc1OCCCN1CCOCC1 [ZM447439, N-[4-[[6-methoxy-7-(3-morpholin-4-ylpropoxy)quinazolin-4-yl]amino]phenyl]benzamide]
sensitivity of NALM6 cells to dex-induced apoptosis (0.75 µM ZM447439 stronger effect than 0.625 μM, 72 h): significantly sensitized
